Assay results from patent US8546389B2 (priority 2010, dated 2013).
Like-named read-outs stand apart in the source and are kept apart here.

How the values were obtained:
1b (BK) NS5bΔ21 = 1b (BK) NS5bΔ21 (Hepatitis C virus genotype 1b (isolate BK) (HCV), UniProt P26663); experiment: HCV polymerase inhibition assay, genotype 1b; format: biochemical, HCV genotype 1b (BK)
In short: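 NS5bΔ21 (50 nM) in Tris-HCl pH 7.5 with Mg2+/Mn2+, DTT, BSA, 0.5% DMSO, poly(rC) template, GTP at Km and ^33P-GTP; 3-fold compound dilutions. GTP-started reactions stopped with EDTA after 1 h; incorporation read by DEAE filter scintillation counting. IC50 by non-linear regression; 3a enzyme run the same way.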

[1] = target: genotype 3a (VRL-69) NS5bΔ21 polymerase (Hepatitis C virus genotype 3a, UniProt Q81258); experiment: HCV polymerase inhibition assay, genotype 3a; format: biochemical, HCV genotype 3a (VRL-69)
Description: HCV polymerase reactions were carried out using a modified method of Howe et al., Antimicrobial Agents and Chemotherapy 2004 48(12): 4813-4821. Reactions contained a final concentration of, 0.5% DMSO, 50 nM, 1b (BK) NS5bΔ21, 20 mM Tris-HCl pH 7.5, 5 mM MgCl2, 5 mM MnCl2, 3 mM DTT, 0.05% BSA, 0.2 U/μL RNasin, 10 μg/mL Poly(rC) template, GTP (at Km) and 0.05 μCi/μL ^33P-GTP in a total reaction volume of 50 μL. Compounds were tested in a three fold dilution series, for example starting from 50 μM. Reactions were initiated with the addition of GTP and terminated after 1 hour with 50 μL ice cold 0.2 M EDTA. Terminated reactions were transferred to DEAE 96-well filter plates, unincorporated nucleotides washed from the filters and 50 μL scintillation fluid added prior to reading on a scintillation counter. Similarly, a genotype 3a (VRL-69) NS5bΔ21 polymerase enzyme assay was conducted using essentially the same method.
The compound concentration that reduced ^33P-GTP incorporation by 50% (IC50) was calculated using non-linear regression.

[2] = test system: genotype 1b (Con 1) subgenomic replicon cell line; experiment: HCV replicon assay, genotype 1b (Renilla luciferase); format: cell-based, HCV genotype 1b (Con 1); details: genotype 1b replicon
In short: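 Subgenomic replicon cells expressing Renilla luciferase (1b Con1; 1a and 2a lines by the same method) seeded at 7000 cells/well (5000 for 2a) without G418, exposed to 3-fold compound dilutions for 72 h at 37 °C. Luciferase activity measured; EC50 by non-linear regression.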

[3] = test system: subgenomic genotype 1a replicon cell line; experiment: HCV replicon assay, genotype 1a; format: cell-based, HCV genotype 1a
Description: (§1) A genotype 1b (Con 1) subgenomic replicon cell line based on Blight et al., Science 2000 290: 1972-1974, modified to express a Renilla luciferase reporter gene was used to assess antiviral activity of test compounds. Cell cultures were maintained in a sub-confluent state in DMEM with glutamine, 10% heat-inactivated foetal bovine serum (FBS) and G418 (Geneticin®).
(§2) For assay, cells were seeded at a density of 7000 cells/well into 96 well tissue culture trays in culture media lacking G418. Compounds were tested in a three fold dilution series, for example starting from 50 uM. After 72 hours incubation at 37° C. and 5% CO2, Renilla luciferase activity was quantified via the Promega Renilla Luciferase or Renilla-Glo™ Luciferase Assay Systems (Promega corporation. The same method was employed for replicon assays using subgenomic genotype 1a and 2a replicon cell lines with a seeding cell density of 5000 cells/well for the 2a cell lines.
(§3) The compound concentration that reduced luciferase activity by 50% (EC50) was calculated using non-linear regression.

[4] = test system: subgenomic genotype 2a replicon cell line; experiment: HCV replicon assay, genotype 2a; format: cell-based, HCV genotype 2a
Description: as §1, §2, §3

[5] = 1b (BK) NS5bΔ21, 33P-GTP incorporation, read-out: 1b polymerase IC50 (range class)
[6] = genotype 1b, read-out: 1b NS5b polymerase IC50
[7] = genotype 3a, read-out: 3a NS5b polymerase IC50
[8] = Hepatitis C virus, 72 hours, luciferase, read-out: genotype 1b EC50 (range class)
[9] = Hepatitis C virus, read-out: Replicon 1b EC50

Sequence of 1b (BK) NS5bΔ21 (P26663 2420-2989): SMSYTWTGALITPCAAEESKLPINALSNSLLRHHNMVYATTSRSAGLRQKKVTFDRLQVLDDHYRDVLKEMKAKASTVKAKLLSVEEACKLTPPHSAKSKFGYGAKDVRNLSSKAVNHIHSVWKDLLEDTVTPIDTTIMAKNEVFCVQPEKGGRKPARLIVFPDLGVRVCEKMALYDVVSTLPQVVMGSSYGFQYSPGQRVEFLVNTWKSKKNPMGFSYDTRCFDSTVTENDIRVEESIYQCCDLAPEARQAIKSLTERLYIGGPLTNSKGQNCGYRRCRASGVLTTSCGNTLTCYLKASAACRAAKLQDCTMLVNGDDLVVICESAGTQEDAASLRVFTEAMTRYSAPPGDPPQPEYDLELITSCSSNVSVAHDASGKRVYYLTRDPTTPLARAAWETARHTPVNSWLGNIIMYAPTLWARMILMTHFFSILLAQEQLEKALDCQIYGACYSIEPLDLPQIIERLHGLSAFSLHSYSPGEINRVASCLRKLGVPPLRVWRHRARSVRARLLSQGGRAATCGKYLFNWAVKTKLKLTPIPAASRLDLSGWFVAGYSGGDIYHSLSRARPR
Sequence of genotype 3a (VRL-69) NS5bΔ21 polymerase (Q81258 whole entry, looked up, stated change not applied): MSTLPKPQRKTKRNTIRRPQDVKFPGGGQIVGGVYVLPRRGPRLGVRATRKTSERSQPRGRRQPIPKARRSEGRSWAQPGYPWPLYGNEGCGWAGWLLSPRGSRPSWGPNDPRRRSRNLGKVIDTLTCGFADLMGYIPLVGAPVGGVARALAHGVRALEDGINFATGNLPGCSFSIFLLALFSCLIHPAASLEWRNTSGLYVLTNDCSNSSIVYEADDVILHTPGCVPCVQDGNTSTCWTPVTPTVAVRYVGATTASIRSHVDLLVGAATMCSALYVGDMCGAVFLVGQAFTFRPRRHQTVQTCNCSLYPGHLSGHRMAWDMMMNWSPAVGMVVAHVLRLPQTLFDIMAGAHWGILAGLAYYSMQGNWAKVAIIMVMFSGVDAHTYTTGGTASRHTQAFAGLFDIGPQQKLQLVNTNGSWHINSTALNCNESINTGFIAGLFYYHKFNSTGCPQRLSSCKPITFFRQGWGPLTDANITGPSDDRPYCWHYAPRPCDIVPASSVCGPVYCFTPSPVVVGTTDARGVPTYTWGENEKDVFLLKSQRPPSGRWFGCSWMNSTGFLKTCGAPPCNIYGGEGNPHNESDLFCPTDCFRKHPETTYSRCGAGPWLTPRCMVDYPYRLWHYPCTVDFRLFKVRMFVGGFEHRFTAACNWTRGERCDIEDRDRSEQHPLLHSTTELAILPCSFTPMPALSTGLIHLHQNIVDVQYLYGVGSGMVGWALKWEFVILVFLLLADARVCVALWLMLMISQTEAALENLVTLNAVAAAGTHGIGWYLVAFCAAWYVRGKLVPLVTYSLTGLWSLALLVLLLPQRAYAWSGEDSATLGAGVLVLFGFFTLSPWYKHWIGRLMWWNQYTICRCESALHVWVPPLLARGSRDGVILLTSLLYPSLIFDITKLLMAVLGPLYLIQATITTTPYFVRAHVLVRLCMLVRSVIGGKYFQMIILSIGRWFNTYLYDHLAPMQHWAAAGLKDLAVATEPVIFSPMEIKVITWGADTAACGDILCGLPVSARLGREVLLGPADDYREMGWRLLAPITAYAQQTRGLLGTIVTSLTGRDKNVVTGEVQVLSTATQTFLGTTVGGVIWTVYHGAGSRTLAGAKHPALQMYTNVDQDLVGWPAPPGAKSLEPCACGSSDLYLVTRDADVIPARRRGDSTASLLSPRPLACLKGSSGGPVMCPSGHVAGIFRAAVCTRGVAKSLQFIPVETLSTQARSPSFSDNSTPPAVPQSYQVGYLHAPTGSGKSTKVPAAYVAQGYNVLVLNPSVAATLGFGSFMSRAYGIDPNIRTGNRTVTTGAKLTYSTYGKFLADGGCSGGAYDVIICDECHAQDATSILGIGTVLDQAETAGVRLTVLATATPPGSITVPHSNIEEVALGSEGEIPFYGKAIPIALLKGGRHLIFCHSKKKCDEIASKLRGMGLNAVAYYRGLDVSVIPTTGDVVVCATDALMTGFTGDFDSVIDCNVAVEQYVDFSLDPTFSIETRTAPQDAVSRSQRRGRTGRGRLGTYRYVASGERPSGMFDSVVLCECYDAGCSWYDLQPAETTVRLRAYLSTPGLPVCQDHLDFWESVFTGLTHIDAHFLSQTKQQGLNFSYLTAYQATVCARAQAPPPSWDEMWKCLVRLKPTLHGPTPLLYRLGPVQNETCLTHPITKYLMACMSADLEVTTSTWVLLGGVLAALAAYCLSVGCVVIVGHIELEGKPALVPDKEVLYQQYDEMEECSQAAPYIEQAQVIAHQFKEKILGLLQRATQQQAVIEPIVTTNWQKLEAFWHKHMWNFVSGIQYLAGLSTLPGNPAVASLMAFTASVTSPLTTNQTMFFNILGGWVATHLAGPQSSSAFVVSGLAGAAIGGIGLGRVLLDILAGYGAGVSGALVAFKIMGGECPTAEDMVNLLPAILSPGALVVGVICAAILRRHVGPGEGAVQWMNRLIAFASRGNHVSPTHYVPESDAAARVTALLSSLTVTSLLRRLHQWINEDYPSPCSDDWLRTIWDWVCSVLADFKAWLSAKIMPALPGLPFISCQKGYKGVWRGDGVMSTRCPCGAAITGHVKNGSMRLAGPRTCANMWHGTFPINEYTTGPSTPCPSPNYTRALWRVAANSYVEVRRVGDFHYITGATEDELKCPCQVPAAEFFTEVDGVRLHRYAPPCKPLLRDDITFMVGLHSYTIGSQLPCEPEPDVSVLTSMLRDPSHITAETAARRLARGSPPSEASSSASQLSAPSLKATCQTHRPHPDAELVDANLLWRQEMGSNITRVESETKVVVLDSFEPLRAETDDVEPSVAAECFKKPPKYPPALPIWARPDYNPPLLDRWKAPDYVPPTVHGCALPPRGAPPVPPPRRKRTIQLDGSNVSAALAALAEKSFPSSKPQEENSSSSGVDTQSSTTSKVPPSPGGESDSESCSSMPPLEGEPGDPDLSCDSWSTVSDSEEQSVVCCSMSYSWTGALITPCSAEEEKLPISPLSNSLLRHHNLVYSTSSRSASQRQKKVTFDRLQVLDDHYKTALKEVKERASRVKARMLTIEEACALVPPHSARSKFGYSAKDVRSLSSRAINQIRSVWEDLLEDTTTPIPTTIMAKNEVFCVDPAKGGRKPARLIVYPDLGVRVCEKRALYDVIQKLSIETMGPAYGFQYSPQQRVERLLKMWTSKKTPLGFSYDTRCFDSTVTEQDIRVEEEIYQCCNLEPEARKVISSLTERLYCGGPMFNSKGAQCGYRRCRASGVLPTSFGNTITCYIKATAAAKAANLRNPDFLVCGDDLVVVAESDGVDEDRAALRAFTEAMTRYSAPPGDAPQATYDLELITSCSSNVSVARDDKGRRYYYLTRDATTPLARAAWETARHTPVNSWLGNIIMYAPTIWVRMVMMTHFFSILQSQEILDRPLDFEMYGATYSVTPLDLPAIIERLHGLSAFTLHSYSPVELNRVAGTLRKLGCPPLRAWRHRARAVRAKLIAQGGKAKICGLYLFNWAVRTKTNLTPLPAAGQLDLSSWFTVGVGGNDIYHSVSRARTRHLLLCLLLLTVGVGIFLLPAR

Row | SMILES | IC50 (1b (BK) NS5bΔ21; [5]) [nM] | IC50 (1b (BK) NS5bΔ21; [6]) [nM] | IC50 [1, 7] [nM] | EC50 [2, 8] [nM] | EC50 [2, 9] [nM] | EC50 ([3]; Hepatitis C virus) [nM] | EC50 ([4]; Hepatitis C virus) [nM] | EC50 ([2]; read-out: Replicon 1b EC50) [nM] | EC50 [3] [nM] | EC50 [4] [nM] | IC50 [1] [nM]
1 | CCN(c1cc2nn(-c3ccc(NCC(C)C)cc3)c(C(=O)NC)c2cc1C1CC1)S(C)(=O)=O [Compound 117] | < 990 | 430 | 70 | < 990 | 70 | 340 | 150 | – | – | – | –
2 | CNC(=O)c1c2cc(C3CC3)c(N(CCCNC(=O)c3ccnc(OC)c3)S(C)(=O)=O)cc2nn1-c1ccc(Br)cc1 [Compound 177] | < 990 | 280 | 60 | < 990 | 70 | 110 | 310 | – | – | – | –
3 | CNC(=O)c1c2cc(C3CC3)c(N(CCCNC(=O)C(F)(F)F)S(C)(=O)=O)cc2nn1-c1ccc(Br)cc1 [Compound 172] | < 990 | 110 | 40 | < 990 | 60 | 60 | 1830 | – | – | – | –
4 | CCN(c1cc2nn(-c3ccc(Oc4ccc(F)cc4)nc3)c(C(=O)NC)c2cc1C1CC1)S(C)(=O)=O [Compound 136] | 1000 to 9990 | 1550 | 820 | < 990 | 270 | 1530 | 1800 | – | – | – | –
5 | CNC(=O)c1c2cc(C3CC3)c(N(CCCSC)S(C)(=O)=O)cc2nn1-c1ccc(Br)cc1 [Compound 99, 2-(4-bromophenyl)-5-cyclopropyl-N-methyl-6-[3-methylsulfanylpropyl(methylsulfonyl)amino]-2H-indazole-3-carboxamide] | < 990 | 90 | 20 | < 990 | 70 | 430 | 1080 | – | – | – | –
6 | C=CCN(c1cc2nn(-c3ccc(Br)cc3)c(C(=O)NC)c2cc1C1CC1)S(C)(=O)=O [Compound 98] | – | 100 | 30 | – | – | – | – | 80 | 160 | 460 | –
7 | CNC(=O)c1c2cc(C3CC3)c(N(CCCNC(=O)c3cccnc3)S(C)(=O)=O)cc2nn1-c1ccc(Br)cc1 [Compound 191] | < 990 | 430 | 20 | < 990 | 190 | 400 | 2590 | – | – | – | –
8 | CNC(=O)c1c2cc(C3CC3)c(N(CCCNC(=O)c3cnn(C)c3C)S(C)(=O)=O)cc2nn1-c1ccc(Br)cc1 [Compound 180] | < 990 | 370 | 50 | < 990 | 140 | 570 | 1110 | – | – | – | –
9 | CNC(=O)c1c2cc(C3CC3)c(N(CCCO)S(C)(=O)=O)cc2nn1-c1ccc(Br)cc1 [Compound 4, 2-(4-bromophenyl)-5-cyclopropyl-6-[(3-hydroxypropyl)(methylsulfonyl)amino]-N-methyl-2H-indazole-3-carboxamide] | < 990 | 170 | 10 | < 990 | 90 | 210 | 940 | – | – | – | –
10 | CNC(=O)c1c2cc(C3CC3)c(N(CCCNC(=O)C3CCC3)S(C)(=O)=O)cc2nn1-c1ccc(Br)cc1 [Compound 62] | – | 180 | 50 | – | – | – | – | 170 | 80 | 2860 | –
11 | CNC(=O)c1c2cc(C3CC3)c(N(CCCNC(=O)c3cccnc3OC)S(C)(=O)=O)cc2nn1-c1ccc(Br)cc1 [Compound 190] | < 990 | 830 | 40 | < 990 | 70 | 90 | 430 | – | – | – | –
12 | CCN(c1cc2nn(-c3ccc(Oc4ccccc4F)cc3)c(C(=O)NC)c2cc1C1CC1)S(C)(=O)=O [Compound 28] | < 990 | 120 | 20 | < 990 | 100 | 740 | 200 | – | – | – | –
13 | CNC(=O)c1c2cc(C3CC3)c(N(CCCNC(=O)[C@H]3CCC[C@@H]3C(=O)OC)S(C)(=O)=O)cc2nn1-c1ccc(Br)cc1 [Compound 216] | < 990 | 180 | 20 | < 990 | 40 | 130 | 680 | – | – | – | –
14 | CNC(=O)c1c2cc(C3CC3)c(N(CCC3COC(C)(C)OC3)S(C)(=O)=O)cc2nn1-c1ccc(Cl)cc1 [Compound 235] | < 990 | 90 | 30 | < 990 | 40 | 280 | 140 | – | – | – | –
15 | CCOC(=O)CCC(=O)NCCCN(c1cc2nn(-c3ccc(Br)cc3)c(C(=O)NC)c2cc1C1CC1)S(C)(=O)=O [Compound 164] | < 990 | 520 | 40 | < 990 | 210 | 10 | 620 | – | – | – | –
16 | CNC(=O)c1c2cc(C3CC3)c(N(CCCNC(=O)c3ccccc3)S(C)(=O)=O)cc2nn1-c1ccc(Br)cc1 [Compound 166] | < 990 | 160 | 30 | < 990 | 20 | 20 | 340 | – | – | – | –
17 | CNC(=O)c1c2cc(C3CC3)c(N(CCCNC(=O)CCC(=O)OC)S(C)(=O)=O)cc2nn1-c1ccc(Br)cc1 [Compound 66, Methyl 4-[(3-{[2-(4-bromophenyl)-5-cyclopropyl-3-(methylcarbamoyl)-2H-indazol-6-yl](methylsulfonyl)amino}propyl)amino]-4-oxobutanoate] | < 990 | 320 | – | < 990 | 120 | 20 | 360 | – | – | – | 80
18 | CNC(=O)c1c2cc(C3CC3)c(N(CCCNC(=O)C(C)C)S(C)(=O)=O)cc2nn1-c1ccc(Br)cc1 [Compound 156] | < 990 | 250 | 70 | < 990 | 210 | 210 | 1510 | – | – | – | –
19 | CNC(=O)c1c2cc(C3CC3)c(N(CCCNC(=O)c3ccoc3)S(C)(=O)=O)cc2nn1-c1ccc(Br)cc1 [Compound 160] | < 990 | 70 | 40 | < 990 | 90 | 340 | 780 | – | – | – | –
20 | CNC(=O)c1c2cc(C3CC3)c(N(CCC3COC(C)(C)OC3)S(C)(=O)=O)cc2nn1-c1ccc(Br)cc1 [Compound 95] | – | 70 | 40 | – | – | – | – | 50 | 70 | 180 | –
21 | CNC(=O)c1c2cc(C3CC3)c(N(CCCNC(=O)c3cccc(OC)c3F)S(C)(=O)=O)cc2nn1-c1ccc(Br)cc1 [Compound 189] | < 990 | 130 | 50 | < 990 | 30 | 80 | 230 | – | – | – | –
22 | CNC(=O)c1c2cc(C3CC3)c(N(CCN3CCOCC3)S(C)(=O)=O)cc2nn1-c1ccc(Oc2ccc(F)cc2)cc1 [Compound 112] | < 990 | 410 | 40 | < 990 | 130 | 1900 | 2730 | – | – | – | –
23 | CNC(=O)c1c2cc(C3CC3)c(N(CCCO)S(C)(=O)=O)cc2nn1-c1ccc(Nc2ccc(F)cc2)cc1 [Compound 21] | < 990 | 40 | 40 | < 990 | 460 | 290 | 340 | – | – | – | –
